These results are taken from US4530837A, “Peptide derivatives, their preparation process and their pharmaceutical use” (Commissariat a l'Energie Atomique, priority 1982, dated 1985).

Experiment [1] has as its system hydrochloric acid secretion. As to the kind of experiment: hydrochloric acid secretion in anesthetized rats with perfused stomach (Ghosh and Schild, modified by Lai): agonist effect. In kind it is in vivo, rat. The settings on record: intravenous injection, male Wistar rats. The protocol:
(§1) For the purpose of these tests, use was made of male Wistar rats weighing 300±25 g. The rats were not allowed to take solid food for 18 hours, but were allowed to drink water freely. They were then anesthesized with urethane (1.25 g/kg) by the intramuscular route. The temperature of the rats was maintained at 34° C. by means of lamps, approximately 60 cm away from them. A polyethylene catheter was introduced into the esophagus up to the level of the cardia and a second catheter for collecting the stomach secretion at the duodenum. After washing the stomach, the latter was continuously perfused with a 0.9% sodium chloride solution, at a flow rate of 1 ml/min, using a peristaltic pump connected to the catheter of the esophagus.
(§2) After a period of stabilizing the system lasting approximately 90 minutes after the operation, the compounds which it was wished to study were injected intravenously into the vein of the penis and the gastric secretion was collected by fractions taken every 20 minutes, the interval between these injections being min 90 minutes. The acidity of the sample fractions was dosed by means of a 0.01N sodium solution at the phenolphthalein colour change.

The subject of experiment [2] is hydrochloric acid secretion stimulated by histamine. As to the kind of experiment: inhibition of secretion plateau stimulated by histamine in anesthetized perfused-stomach rats. Conditions: 150 nmol/kg i.v., histamine 13.5 μmol/kg/h. The experiment is classed as in vivo, rat. As to the method: as §1, §2
In this case, use is made of the same operating procedure as in the second group of experiments, by stimulating the secretion by histamine. In this case, a higher histamine dose (13.5 μmol/kg/h) is injected.

Where only a bound is given, the exact number is not on record here.

As for `CSCC[C@H](NC(=O)[C@H](Cc1c[nH]c2ccccc12)NC(=O)CCNC(=O)OC(C)(C)C)C(=O)N[C@@H](CC(=O)O)C(=O)N[C@@H](Cc1ccccc1)C(N)=O` [pentagastrin, Boc-βAla-Trp-Met-Asp-Phe-NH2], in experiment [1], the “dose from which activity on hydrochloric acid secretion is maximum” value is no less than 20 nmol/kg.
In the case of `CN/C(=N\CCSCc1nc[nH]c1C)NC#N` [cimetidine], in experiment [2], the “duration of inhibition of the histamine response” value is “approximately 3 h” and the “inhibition of the histamine response (intensity)” value was “approximately 55%”. In experiment [2] (group of 4 rats), the “maximum inhibition percentage (mean ± ESM)” value came out at 54.4±2.7%.
